Experimental data taken from patent US20190290685A1, “COMPOSITIONS AND ASSOCIATED METHODS OF MESOPOROUS NANOPARTICLES COMPRISING PLATINUM-ACRIDINE MOLECULES” (Wake Forest University, priority 2016, published 2019).
Entries after “also recorded” stand apart in the source; their conditions may differ.

How the values were obtained:
[1] = test system: BxPC3 cells; test: Flow cytometry cell cycle analysis; format: cell-based, human; details: BxPC3, 48 h, micromolar-to-submicromolar concentrations; dinitrate salt
Procedure: BxPC3 cells were treated with P1A1@MSNLP-COOH-LIP10, P1A1, or MSNLP-COOH-LIP10 for 48 h at the indicated concentrations. Cells were gently trypsinized, washed in PBS, fixed in ice-cold EtOH:PBS (1:1) at equivalent cell concentrations, and stored at −20° C. Cells were washed with PBS, stained using FxCycle PI/RNase staining solution (Molecular Probes, Eugene, Oreg.) and assessed by flow cytometry using an Accuri C6 (BD Biosciences, San Jose, Calif.). Data was analyzed using Modfit software v3.3.

[2] = test system: BxPC3 pancreatic cancer cells; test: Confocal fluorescence microscopy, uptake and subcellular distribution; format: cell-based, human; details: BxPC3, 5 μM P1A1 or equivalent, 1 h and 12 h
Procedure: BxPC3 cells were seeded onto chamber slides (Nunc, Rochester, N.Y.) and allowed to attach for 48 h. Cells were then treated with 5 μM P1A1, P1A1@MSNLP-COOH-LIP10 at an equivalent concentration of drug, or vehicle. The medium was aspirated and cells were co-stained by incubating with 75 nM Lysotracker Red in complete medium for 1 h. Cells were washed 3× with PBS and fixed in 4% formaldehyde/PBS for 15 min. After another three PBS washes, cover slips were mounted onto 4-well chamber slides using vectashield HardSet mounting medium (Vector Labs, Burlingame, Calif.) and stored at 4° C. until ready to use. Images were collected using a Zeiss LSM 710 confocal microscope (Carl Zeiss MicroImaging, Thornwood, N.Y.) using a 63× (PLAN Oil APO, 1.4 NA) objective lens. All image channels were acquired in a sequential mode to minimize excitation cross talk and emission bleed-through. […] For comparative fluorescence intensity analysis, great care was taken to equalize excitation power, pinhole settings, PMT gain, and offset values across and within imaging sessions for each respective channel. […] Where necessary, post-acquisition contrast adjustments were applied to the entire image, and processing was identical in all fluorescence channels. […]

## [PtCl(en)(N-[acridin-9-ylaminoethyl]-N-methylpropionamidine)] dinitrate salt [Compound P1A1]
[1]
  effect on cell cycle distribution: robust S phase arrest; also recorded: sub-G1 population at the highest dose
[2]
  uptake and subcellular distribution: accumulates rapidly (about 1 h) in cells to produce blue fluorescence associated with the entire cytoplasm and, to a lesser extent, the nuclear region
